According to patent publication US6492416B1, “4,5-diaryl-3(2H)-furanone derivatives as cyclooxygenase-2 inhibitors” (Pacific Corporation, priority 1999, dated 2002):

| melting point [°C] | SMILES |
| --- | --- |
| 120 to 121 | C[S+]([O-])c1ccc(C2=C(c3ccccc3)C(=O)C(C)(C)O2)cc1Cl (stereo not shown) [Example 363, 5-{3-Chloro-4-(methylsulfinyl)phenyl}-2,2-dimethyl-4-phenyl-3(2H)-furanone] |
| 173 to 174 | CC1(C)OC(c2ccc(S(C)(=O)=O)c(F)c2)=C(c2ccc([N+](=O)[O-])cc2)C1=O [Example 287, 2,2-dimethyl-4-(4-nitrophenyl)-5-{3-fluoro-4-(methylsulfonyl)-phenyl}-3(2H)-furanone] |
| 204 to 206 | CC1(C)OC(c2ccc(S(C)(=O)=O)cc2)=C(c2cc3ccccc3s2)C1=O [Example 15, 4-(2-Benzo[b]thienyl)-2,2-dimethyl-5-{4-(methylsulfonyl)phenyl}-3(2H)-furanone] |
| 113 to 114 | CCC1(C)OC(c2ccc(S(N)(=O)=O)cc2)=C(c2ccc(OC)c(F)c2)C1=O (stereo not shown) [Example 46, 5-{4-(Aminosulfonyl)phenyl}-2-ethyl-4-(3-fluoro-4-methoxyphenyl)-2-methyl-3(2H)-furanone] |
| 160 to 161 | CC1(C)OC(c2ccc(S(N)(=O)=O)cc2)=C(c2cccc(-c3ccccc3)c2)C1=O [Example 29, 5-{4-(Aminosulfonyl)phenyl}-4-(3-biphenyl)-2,2-dimethyl-3(2H)-furanone] |
| 120 to 121 | CC1(C)OC(c2ccc(S(N)(=O)=O)cc2)=C(c2cc3ccccc3s2)C1=O [Example 28] |
| 130 to 131 | COc1c(C)cc(C2=C(c3ccc(S(C)(=O)=O)cc3)OC(C)(C)C2=O)cc1C [Example 12, 2,2-Dimethyl-4-(3,5-dimethyl-4-methoxyphenyl)-5-{4-(methylsulfonyl)phenyl}-3(2H)-furanone] |
| 178 to 179 | CC1(C)OC(c2ccc(S(C)(=O)=O)cc2)=C(c2ccc3c(c2)OCO3)C1=O [Example 8, 2,2-Dimethyl-4-(3,4-methylenedioxyphenyl)-5-{4-(methylsulfonyl)phenyl}-3(2H)-furanone] |
| 198 to 203 | CCS(=O)(=O)c1ccc(C2=C(c3ccc(S(C)(=O)=O)cc3)OC(C)(C)C2=O)cc1 [Example 110, 2,2-Dimethyl-4-{4-(ethylsulfonyl)phenyl}-5-{4-(methylsulfonyl)phenyl}-3(2H)-furanone] |
| 122 to 123 | CSc1ccc(C2=C(c3cc(F)cc(F)c3)C(=O)C(C)(C)O2)cc1 [Example 173, 4-(3,5-difluorophenyl)-2,2-dimethyl-5-{4-(methylthio)-phenyl}-3(2H)-furanone] |
| 188 to 189 | CCCC(=O)NS(=O)(=O)c1ccc(C2=C(c3cccc(F)c3)C(=O)C(C)(C)O2)cc1 [Example 183, 5-[4-{(n-Butyrylamino)sulfonyl}phenyl]-2,2-dimethyl-4-(3-fluorophenyl)-3(2H)-furanone] |
| 135 to 136 | C[S+]([O-])c1ccc(C2=C(c3ccccc3)C(=O)C(C)(C)O2)c(Cl)c1 (stereo not shown) [Example 391, 5-{2-Chloro-4-(methylsulfinyl)phenyl}-2,2-dimethyl-4-phenyl-3(2H)-furanone] |
| 167 to 168 | Cc1ccc(C2=C(c3ccc(S(C)(=O)=O)cc3)OC(C)(C)C2=O)cc1 [Example 1, 2,2-Dimethyl-4-(4methylphenyl)-5-{4-(methylsulfonyl)phenyl}-3(2H)-furanone] |
| 176 to 177 | CNS(=O)(=O)c1ccc(C2=C(c3cccc(F)c3)C(=O)C(C)(C)O2)cc1 [Example 184, 2,2-Dimethyl-5-{4-(N-methylaminosulfonyl)phenyl}-4-(3-fluorophenyl)-3(2H)-furanone] |
| 103 to 105 | CCSc1ccc(C2=C(c3ccc(S(C)(=O)=O)cc3)OC(C)(C)C2=O)cc1 [Example 88, 2,2-dimethyl-4-{4-(ethylthio)phenyl}-5-{4-(methylsulfonyl)-phenyl}-3(2H)-furanone] |
| 126 to 130 | CC(=O)c1ccc(C2=C(c3ccc(S(C)(=O)=O)cc3)OC3(CCCC3)C2=O)cc1 [Example 55, 3-(4-Acetylphenyl)-2-{4-(methylsulfonyl)phenyl}-1-oxa-spiro[4,4]non-2-en-4-one] |
